# According to patent US7902200B2, “Chemical compounds” (AstraZeneca AB, priority 2006, dated 2011):
# Molecular target: T1, recombinant human pancreatic GLK (Homo sapiens, UniProt P35557)
# T1 construct: 6-His (N); made in house; host or cells: E. coli BL21
# T1 sequence (P35557 1-465): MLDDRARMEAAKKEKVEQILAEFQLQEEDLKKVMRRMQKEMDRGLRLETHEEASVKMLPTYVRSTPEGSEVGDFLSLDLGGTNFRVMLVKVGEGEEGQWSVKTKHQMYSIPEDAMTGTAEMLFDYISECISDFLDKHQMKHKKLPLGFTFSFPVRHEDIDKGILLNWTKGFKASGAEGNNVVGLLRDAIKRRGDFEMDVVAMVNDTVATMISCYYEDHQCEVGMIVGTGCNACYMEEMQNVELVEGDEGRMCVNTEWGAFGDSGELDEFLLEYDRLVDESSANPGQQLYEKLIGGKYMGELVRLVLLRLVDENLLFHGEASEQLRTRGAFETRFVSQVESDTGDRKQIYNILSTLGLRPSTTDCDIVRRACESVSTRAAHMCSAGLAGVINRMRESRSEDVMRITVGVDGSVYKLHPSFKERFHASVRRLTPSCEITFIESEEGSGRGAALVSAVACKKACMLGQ
# Experiment: GKH4 variant of GLK enzymatic activity assay (automated end-point assay)
# Format: biochemical
# Conditions: activation of GLK; 10 nmol/l GLK; end-point at 10 minutes; no GLKRP
# Description: (§1) Enzymatic activity of recombinant human pancreatic GLK may be measured by incubating GLK, ATP and glucose. The rate of product formation may be determined by coupling the assay to a G-6-P dehydrogenase, NADP/NADPH system and measuring the linear increase with time of optical density at 340 nm (Brocklehurst et al (Diabetes 2004, 53, 535-541). Activation of GLK by compounds can be assessed using this assay in the presence or absence of GLKRP as described in Brocklehurst et al (Diabetes 2004, 53, 535-541).
# (§2) One or both of two variants of this assay, GKH1 and GKH4, were used to test the compounds of the invention. The GKH1 assay is a manual, bench-top rate assay using 60 nmol/l of recombinant human pancreatic GLK. The GLK activity rate is measured over a 5 minute window using a Multiskan Ascent spectrophotometer. The GKH4 assay is an automated end-point assay using 10 nmol/l of recombinant human pancreatic GLK. The GLK activity is measured at 10 minutes after the initiation of the assay on a Perkin Elmer Envision spectrophotometer.
row,Structure (SMILES),EC50 [nM]
1,"CCN1CC[C@H](Oc2cc(Oc3ccc(C(=O)N4CCC4)nc3)cc(C(=O)Nc3cnc(C)cn3)c2)C1=O [Example 23, 3-[6-(Azetidine-1-carbonyl)pyridin-3-yl]oxy-5-[(3S)-1-ethyl-2-oxo-pyrrolidin-3-yl]oxy-N-(5-methylpyrazin-2-yl)benzamide]",220
2,"Cc1nsc(NC(=O)c2cc(Oc3cnc(C(=O)N(C)C)cn3)cc(O[C@H]3CCN(C)C3=O)c2)n1 [Example 31, N,N-dimethyl-5-[3-[(3S)-1-methyl-2-oxo-pyrrolidin-3-yl]oxy-5-[(3-methyl-1,2,4-thiadiazol-5-yl)carbamoyl]phenoxy]pyrazine-2-carboxamide]",1080
3,"Cc1cnc(NC(=O)c2cc(Oc3ccc(C(=O)N4CCC4)nc3)cc(O[C@H]3CCN(C4CCC4)C3=O)c2)cn1 [Example 21, 3-[6-(Azetidine-1-carbonyl)pyridin-3-yl]oxy-5-[(3S)-1-cyclobutyl-2-oxo-pyrrolidin-3-yl]oxy-N-(5-methylpyrazin-2-yl)benzamide]",1110
4,"CN1CC[C@H](Oc2cc(Oc3ccc(C(=O)N4CCC4)cc3)cc(C(=O)Nc3cc[nH]n3)c2)C1=O [Example 5, 3-[4-(Azetidine-1-carbonyl)phenoxy]-5-[(3S)-1-methyl-2-oxo-pyrrolidin-3-yl]oxy-N-(1H-pyrazol-3-yl)benzamide]",150
5,"Cc1csc(NC(=O)c2cc(Oc3cnc(C(=O)N(C)C)cn3)cc(O[C@H]3CCN(C)C3=O)c2)n1 [Example 32, N,N-Dimethyl-5-[3-[(3S)-1-methyl-2-oxo-pyrrolidin-3-yl]oxy-5-[(4-methyl-1,3-thiazol-2-yl)carbamoyl]phenoxy]pyrazine-2-carboxamide]",60
6,"Cc1cnc(NC(=O)c2cc(Oc3ccc(C(=O)N4CCC4)nc3)cc(O[C@H]3CCN(C4CC4)C3=O)c2)cn1 [Example 19, 3-[6-(Azetidine-1-carbonyl)pyridin-3-yl]oxy-5-[(3S)-1-cyclopropyl-2-oxo-pyrrolidin-3-yl]oxy-N-(5-methylpyrazin-2-yl)benzamide]",590
7,"Cc1cnc(NC(=O)c2cc(Oc3ccc(C(=O)N4CCC4)nc3)cc(OC3CCN(C4CCC4)C3=O)c2)cn1 (racemic) [Example 17, 3-[6-(Azetidine-1-carbonyl)pyridin-3-yl]oxy-5-(1-cyclobutyl-2-oxo-pyrrolidin-3-yl)oxy-N-(5-methylpyrazin-2-yl)benzamide]",600
8,"Cc1csc(NC(=O)c2cc(Oc3cnc(C(=O)N4CCC4)cn3)cc(O[C@H]3CCN(C)C3=O)c2)n1 [Example 3, 3-[5-(Azetidine-1-carbonyl)pyrazin-2-yl]oxy-5-[(3S)-1-methyl-2-oxo-pyrrolidin-3-yl]oxy-N-(4-methyl1,3-thiazol-2-yl)benzamide]",290
9,"CCN1CCC(Oc2cc(Oc3ccc(C(=O)N4CCC4)nc3)cc(C(=O)Nc3cnc(C)cn3)c2)C1=O (racemic) [Example 10, 3-[6-(Azetidine-1-carbonyl)pyridin-3-yl]oxy-5-(1-ethyl-2-oxo-pyrrolidin-3-yl)oxy-N-(5-methylpyrazin-2-yl)benzamide]",260
10,"Cc1csc(NC(=O)c2cc(Oc3cnc(C(=O)N4CCC4)cn3)cc(O[C@@H]3CCN(C)C3=O)c2)n1 [Example 4, 3-[5-(Azetidine-1-carbonyl)pyrazin-2-yl]oxy-5-[(3R)-1-methyl-2-oxo-pyrrolidin-3-yl]oxy-N-(4-methyl1,3-thiazol-2-yl)benzamide]",18300

# Now from value to compound:
row,EC50 [nM],Structure (SMILES)
1,570,"Cc1cnc(NC(=O)c2cc(Oc3ccc(S(C)(=O)=O)nc3)cc(O[C@H]3CCN(C)C3=O)c2)cn1 [Example 28, 3-[(3S)-1-methyl-2-oxo-pyrrolidin-3-yl]oxy-N-(5-methylpyrazin-2-yl)-5-(6-methylsulfonylpyridin-3-yl)oxy-benzamide]"
2,300,"Cc1cnc(NC(=O)c2cc(Oc3ccc(C(=O)N4CCC4)nc3)cc(O[C@H]3CCN(C)C3=O)c2)cn1 [Example 1, 3-[6-(Azetidine-1-carbonyl)pyridin-3-yl]oxy-5-[(3S)-1-methyl-2-oxo-pyrrolidin-3-yl]oxy-N-(5-methylpyrazin-2-yl)benzamide]"
3,190,"Cc1cnc(NC(=O)c2cc(Oc3ccc(C(=O)N4CCC4)cc3)cc(O[C@H]3CCN(C)C3=O)c2)cn1 [Example 8, 3-[4-(Azetidine-1-carbonyl)phenoxy]-5-[(3S)-1-methyl-2-oxo-pyrrolidin-3-yl]oxy-N-(5-methylpyrazin-2-yl)benzamide]"
4,120,"Cc1cnc(NC(=O)c2cc(Oc3ccc4c(c3)OCCCS4(=O)=O)cc(O[C@H]3CCN(C)C3=O)c2)cn1 [Example 9, 3-[(2,2-Dioxo-6-oxa-2-λ^6-thiabicyclo[5.4.0]undeca-7,9,11-trien-9-yl)oxy]-5-[(3S)-1-methyl-2-oxo-pyrrolidin-3-yl]oxy-N-(5-methylpyrazin-2-yl)benzamide]"
5,80,"Cc1cnc(NC(=O)c2cc(Oc3ccc4c(c3Cl)OCCN(C)C4=O)cc(O[C@H]3CCN(C)C3=O)c2)cn1 [Example 14, 3-[(11-Chloro-5-methyl-6-oxo-2-oxa-5-azabicyclo[5.4.0]undeca-8,10,12-trien-10-yl)oxy]-5-[(3S)-1-methyl-2-oxo-pyrrolidin-3-yl]oxy-N-(5-methylpyrazin-2-yl)benzamide]"
6,570,"Cc1cnc(NC(=O)c2cc(Oc3ccc(S(C)(=O)=O)cc3)cc(O[C@H]3CCN(C)C3=O)c2)cn1 [Example 7, 3-[(3S)-1-Methyl-2-oxo-pyrrolidin-3-yl]oxy-N-(5-methylpyrazin-2-yl)-5-(4-methylsulfonylphenoxy)benzamide]"
7,310,"Cc1cnc(NC(=O)c2cc(Oc3ccc4c(c3)OCCN(C)C4=O)cc(O[C@H]3CCN(C)C3=O)c2)cn1 [Example 16, 3-[(5-Methyl-6-oxo-2-oxa-5-azabicyclo[5.4.0]undeca-8,10,12-trien-10-yl)oxy]-5-[(3S)-1-methyl-2-oxo-pyrrolidin-3-yl]oxy-N-(5-methylpyrazin-2-yl)benzamide]"
8,310,"Cc1cnc(NC(=O)c2cc(Oc3ccc4c(c3)OCCN(C)S4(=O)=O)cc(O[C@H]3CCN(C)C3=O)c2)cn1 [Example 11, 3-[(5-methyl-6,6-dioxo-2-oxa-6-λ^6-thia-5-azabicyclo[5.4.0]undeca-8,10,12-trien-10-yl)oxy]-5-(1-methyl-2-oxo-pyrrolidin-3-yl)oxy-N-(5-methylpyrazin-2-yl)benzamide]"
9,390,"Cc1cnc(NC(=O)c2cc(Oc3ccc(C(=O)N(C)C)cc3Cl)cc(O[C@H]3CCN(C)C3=O)c2)cn1 [Example 26, 3-[2-Chloro-4-(dimethylcarbamoyl)phenoxy]-5-[(3S)-1-methyl-2-oxo-pyrrolidin-3-yl]oxy-N-(5-methylpyrazin-2-yl)benzamide]"
10,660,"Cc1cnc(NC(=O)c2cc(Oc3ccc4c(c3)OCCNS4(=O)=O)cc(O[C@H]3CCN(C)C3=O)c2)cn1 [Example 27, 3-[(6,6-dioxo-2-oxa-6-λ^6-thia-5-azabicyclo[5.4.0]undeca-8,10,12-trien-10-yl)oxy]-5-[(3S)-1-methyl-2-oxo-pyrrolidin-3-yl]oxy-N-(5-methylpyrazin-2-yl)benzamide]"
11,100,"Cc1cnc(NC(=O)c2cc(Oc3ccc(C(=O)N(C)C)nc3)cc(O[C@H]3CCN(C)C3=O)c2)cn1 [Example 29, N,N-dimethyl-5-[3-[(3S)-1-methyl-2-oxo-pyrrolidin-3-yl]oxy-5-[(5-methylpyrazin-2-yl)carbamoyl]phenoxy]pyridine-2-carboxamide]"
12,60,"CN1COc2cc(Oc3cc(O[C@H]4CCN(C)C4=O)cc(C(=O)Nc4cc[nH]n4)c3)ccc2C1=O [Example 30, 3-[(9-methyl-10-oxo-7-oxa-9-azabicyclo[4.4.0]deca-2,4,11-trien-4-yl)oxy]-5-[(3S)-1-methyl-2-oxo-pyrrolidin-3-yl]oxy-N-(1H-pyrazol-3-yl)benzamide]"
13,190,"Cc1cnc(NC(=O)c2cc(Oc3ncc(C(=O)N4CCC4)cc3Cl)cc(O[C@H]3CCN(C)C3=O)c2)cn1 [Example 6, 3-[5-(Azetidine-1-carbonyl)-3-chloro-pyridin-2-yl]oxy-5-[(3S)-1-methyl-2-oxo-pyrrolidin-3-yl]oxy-N-(5-methylpyrazin-2-yl)benzamide]"

# Molecular target: T1, recombinant human pancreatic GLK
# Experiment: GKH1 variant of GLK enzymatic activity assay (manual bench-top rate assay)
# Format: biochemical
# Conditions: activation of GLK; 60 nmol/l GLK; rate over 5 minute window; no GLKRP
# Description: as §1, §2
row,Structure (SMILES),EC50 [nM]
1,"CCN1CC[C@H](Oc2cc(Oc3ccc(C(=O)N4CCC4)nc3)cc(C(=O)Nc3cnc(C)cn3)c2)C1=O [Example 23, 3-[6-(Azetidine-1-carbonyl)pyridin-3-yl]oxy-5-[(3S)-1-ethyl-2-oxo-pyrrolidin-3-yl]oxy-N-(5-methylpyrazin-2-yl)benzamide]",50
2,"Cc1cnc(NC(=O)c2cc(Oc3ccc(C(=O)N4CCC4)nc3)cc(O[C@H]3CCN(C4CCC4)C3=O)c2)cn1 [Example 21, 3-[6-(Azetidine-1-carbonyl)pyridin-3-yl]oxy-5-[(3S)-1-cyclobutyl-2-oxo-pyrrolidin-3-yl]oxy-N-(5-methylpyrazin-2-yl)benzamide]",210

# More lines, now with the values ahead:
row,EC50 [nM],Structure (SMILES)
1,3930,"Cc1cnc(NC(=O)c2cc(Oc3ccc(C(=O)N4CCC4)nc3)cc(O[C@@H]3CCN(C)C3=O)c2)cn1 [Example 2, 3-[6-(Azetidine-1-carbonyl)pyridin-3-yl]oxy-5-[(3R)-1-methyl-2-oxo-pyrrolidin-3-yl]oxy-N-(5-methylpyrazin-2-yl)benzamide]"
2,90,"Cc1cnc(NC(=O)c2cc(Oc3ccc(C(=O)N4CCC4)nc3)cc(O[C@H]3CCN(C)C3=O)c2)cn1 [Example 1, 3-[6-(Azetidine-1-carbonyl)pyridin-3-yl]oxy-5-[(3S)-1-methyl-2-oxo-pyrrolidin-3-yl]oxy-N-(5-methylpyrazin-2-yl)benzamide]"
3,140,"Cc1cnc(NC(=O)c2cc(Oc3ccc4c(c3)OCCN(C)S4(=O)=O)cc(O[C@H]3CCN(C)C3=O)c2)cn1 [Example 11, 3-[(5-methyl-6,6-dioxo-2-oxa-6-λ^6-thia-5-azabicyclo[5.4.0]undeca-8,10,12-trien-10-yl)oxy]-5-(1-methyl-2-oxo-pyrrolidin-3-yl)oxy-N-(5-methylpyrazin-2-yl)benzamide]"
